Measured values: PubChem BioAssay (NCI)
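These data come from cells grown in 96-well plates and exposed to compound for 48 hours at five concentrations. TGI is the concentration that stops growth completely.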

What was measured:
Experiment in all cases: DTP human tumour cell line panel, 48 h
786-0 renal = test system: 786-0 renal
A498 renal = test system: A498 renal
A549 NSCLC = test system: A549 NSCLC
ACHN renal = test system: ACHN renal
CAKI-1 renal = test system: CAKI-1 renal
CCRF-CEM leukemia = test system: CCRF-CEM leukemia
COLO 205 colon = test system: COLO 205 colon
DLD-1 colon = test system: DLD-1 colon
DMS 114 small cell lung = test system: DMS 114 small cell lung
DMS 273 small cell lung = test system: DMS 273 small cell lung
EKVX NSCLC = test system: EKVX NSCLC
HCC-2998 colon = test system: HCC-2998 colon
HCT-116 colon = test system: HCT-116 colon
HCT-15 colon = test system: HCT-15 colon
HL-60(TB) leukemia = test system: HL-60(TB) leukemia
HOP-18 NSCLC = test system: HOP-18 NSCLC
HOP-62 NSCLC = test system: HOP-62 NSCLC
HOP-92 NSCLC = test system: HOP-92 NSCLC
HT29 colon = test system: HT29 colon
IGROV1 ovarian = test system: IGROV1 ovarian
K-562 leukemia = test system: K-562 leukemia
KM12 colon = test system: KM12 colon
KM20L2 colon = test system: KM20L2 colon
LOX IMVI melanoma = test system: LOX IMVI melanoma
LXFL 529 NSCLC = test system: LXFL 529 NSCLC
M14 melanoma = test system: M14 melanoma
M19-MEL melanoma = test system: M19-MEL melanoma
MALME-3M melanoma = test system: MALME-3M melanoma
MOLT-4 leukemia = test system: MOLT-4 leukemia
NCI-H226 lung = test system: NCI-H226 lung
NCI-H23 lung = test system: NCI-H23 lung
NCI-H460 lung = test system: NCI-H460 lung
NCI-H522 lung = test system: NCI-H522 lung
OVCAR-3 ovarian = test system: OVCAR-3 ovarian
OVCAR-4 ovarian = test system: OVCAR-4 ovarian
OVCAR-5 ovarian = test system: OVCAR-5 ovarian
OVCAR-8 ovarian = test system: OVCAR-8 ovarian
RPMI-8226 leukemia = test system: RPMI-8226 leukemia
RXF 393 renal = test system: RXF 393 renal
RXF-631 renal = test system: RXF-631 renal
SF-268 CNS = test system: SF-268 CNS
SF-295 CNS = test system: SF-295 CNS
SF-539 CNS = test system: SF-539 CNS
SK-MEL-2 melanoma = test system: SK-MEL-2 melanoma
SK-MEL-28 melanoma = test system: SK-MEL-28 melanoma
SK-MEL-5 melanoma = test system: SK-MEL-5 melanoma
SK-OV-3 ovarian = test system: SK-OV-3 ovarian
SNB-19 CNS = test system: SNB-19 CNS
SNB-75 CNS = test system: SNB-75 CNS
SNB-78 CNS = test system: SNB-78 CNS
SW-620 colon = test system: SW-620 colon
TK-10 renal = test system: TK-10 renal
U251 CNS = test system: U251 CNS
UACC-257 melanoma = test system: UACC-257 melanoma
UACC-62 melanoma = test system: UACC-62 melanoma
UO-31 renal = test system: UO-31 renal
XF 498 CNS = test system: XF 498 CNS
SN12C renal = test system: SN12C renal
SR leukemia = test system: SR leukemia

For `COC1=CC(=O)C2C(C1=O)C(c1ccc(OC)c(OC)c1)[C@H]2C` (some centres not stated), the TGI (786-0 renal) was 31.9 µM, the TGI (A498 renal) was over 100 µM and the TGI (A549 NSCLC) was over 100 µM. It also gave a TGI (ACHN renal) of 33.4 µM, a TGI (CAKI-1 renal) of 24 µM and a TGI (CCRF-CEM leukemia) of 62.4 µM. The TGI (COLO 205 colon) was 36.9 µM, the TGI (DLD-1 colon) was 31.5 µM and the TGI (DMS 114 small cell lung) was 42.3 µM. For the same molecule, the TGI (DMS 273 small cell lung) was 60.3 µM, the TGI (EKVX NSCLC) was over 100 µM and the TGI (HCC-2998 colon) was over 100 µM. For the same molecule, the TGI (HCT-116 colon) was 31.9 µM, the TGI (HCT-15 colon) was 34.5 µM and the TGI (HL-60(TB) leukemia) was 46.7 µM. It also gave a TGI (HOP-18 NSCLC) of 35.1 µM, a TGI (HOP-62 NSCLC) of over 100 µM and a TGI (HOP-92 NSCLC) of 36.6 µM. For the same molecule, the TGI (HT29 colon) was over 100 µM, the TGI (IGROV1 ovarian) was over 100 µM and the TGI (K-562 leukemia) was 54.4 µM. The TGI (KM12 colon) was over 100 µM, the TGI (KM20L2 colon) was over 100 µM and the TGI (LOX IMVI melanoma) was 40.4 µM. The TGI (LXFL 529 NSCLC) was 33.3 µM, the TGI (M14 melanoma) was 34.9 µM and the TGI (M19-MEL melanoma) was 42.1 µM. For the same molecule, the TGI (MALME-3M melanoma) was 35.3 µM, the TGI (MOLT-4 leukemia) was 31.3 µM and the TGI (NCI-H226 lung) was over 100 µM. It also gave a TGI (NCI-H23 lung) of 42.9 µM, a TGI (NCI-H460 lung) of over 100 µM and a TGI (NCI-H522 lung) of 26.1 µM. It also gave a TGI (OVCAR-3 ovarian) of 40.1 µM, a TGI (OVCAR-4 ovarian) of 30.6 µM and a TGI (OVCAR-5 ovarian) of over 100 µM. For the same molecule, the TGI (OVCAR-8 ovarian) was 42.5 µM, the TGI (RPMI-8226 leukemia) was 38.4 µM and the TGI (RXF 393 renal) was 35.2 µM. The TGI (RXF-631 renal) was 32.7 µM, the TGI (SF-268 CNS) was over 100 µM and the TGI (SF-295 CNS) was over 100 µM. For the same molecule, the TGI (SF-539 CNS) was over 100 µM, the TGI (SK-MEL-2 melanoma) was over 100 µM and the TGI (SK-MEL-28 melanoma) was 39.3 µM. For the same molecule, the TGI (SK-MEL-5 melanoma) was 61.4 µM, the TGI (SK-OV-3 ovarian) was over 100 µM and the TGI (SNB-19 CNS) was over 100 µM. For the same molecule, the TGI (SNB-75 CNS) was over 100 µM, the TGI (SNB-78 CNS) was over 100 µM and the TGI (SW-620 colon) was 40.6 µM. The TGI (TK-10 renal) was 33.3 µM, the TGI (U251 CNS) was over 100 µM and the TGI (UACC-257 melanoma) was 41.1 µM. The TGI (UACC-62 melanoma) was over 100 µM, the TGI (UO-31 renal) was over 100 µM and the TGI (XF 498 CNS) was 29.9 µM.
With `CC(C)(C)C(=O)/C=C/c1cccc(Oc2ccccc2)c1` the TGI (786-0 renal) was 30.7 µM, the TGI (A498 renal) was 37.1 µM and the TGI (A549 NSCLC) was 48.8 µM. It also gave a TGI (ACHN renal) of 28.5 µM, a TGI (CCRF-CEM leukemia) of 31 µM and a TGI (DLD-1 colon) of 28.5 µM. The TGI (EKVX NSCLC) was 35.9 µM, the TGI (HCC-2998 colon) was 36.5 µM and the TGI (HCT-116 colon) was 31 µM. For the same molecule, the TGI (HCT-15 colon) was 40.4 µM, the TGI (HOP-18 NSCLC) was 30.2 µM and the TGI (HOP-62 NSCLC) was over 100 µM. The TGI (HT29 colon) was 22.1 µM, the TGI (IGROV1 ovarian) was 78 µM and the TGI (K-562 leukemia) was 30.1 µM. It also gave a TGI (KM12 colon) of 25.6 µM, a TGI (KM20L2 colon) of 28.2 µM and a TGI (LXFL 529 NSCLC) of 33.1 µM. For the same molecule, the TGI (M14 melanoma) was 34.7 µM, the TGI (M19-MEL melanoma) was 54.2 µM and the TGI (MALME-3M melanoma) was 36.2 µM. It also gave a TGI (MOLT-4 leukemia) of 57.1 µM, a TGI (NCI-H226 lung) of 33.4 µM and a TGI (NCI-H460 lung) of 32.5 µM. For the same molecule, the TGI (NCI-H522 lung) was 29.8 µM, the TGI (OVCAR-5 ovarian) was 32.8 µM and the TGI (OVCAR-8 ovarian) was 27.8 µM. The TGI (RPMI-8226 leukemia) was 22.5 µM, the TGI (RXF 393 renal) was 30 µM and the TGI (RXF-631 renal) was over 100 µM. It also gave a TGI (SF-295 CNS) of 25.8 µM, a TGI (SF-539 CNS) of 40.2 µM and a TGI (SK-MEL-2 melanoma) of 27.6 µM. For the same molecule, the TGI (SK-MEL-28 melanoma) was 34.1 µM, the TGI (SK-MEL-5 melanoma) was 30.4 µM and the TGI (SK-OV-3 ovarian) was over 100 µM. For the same molecule, the TGI (SN12C renal) was 27.4 µM, the TGI (SNB-19 CNS) was 30 µM and the TGI (SNB-75 CNS) was 64.6 µM. For the same molecule, the TGI (SNB-78 CNS) was 48.1 µM, the TGI (SR leukemia) was over 100 µM and the TGI (U251 CNS) was 23.5 µM. The TGI (UACC-257 melanoma) was 28.4 µM, the TGI (UO-31 renal) was 28.8 µM and the TGI (XF 498 CNS) was 32.9 µM.
